Here are results for 1 compound from ChEMBL document CHEMBL4311992, “Discovery of 3-(((9H-purin-6-yl)amino)methyl)-4,6-dimethylpyridin-2(1H)-one derivatives as novel tubulin polymerization inhibitors for treatment of cancer” (Eur J Med Chem, 2019).

The source made the active and inactive calls. No cut-off for these calls is given here.

For data set [1], the target named is Serine/threonine-protein kinase WNK3 (Homo sapiens) (UniProt Q9BYP7). Kind of data set: Inhibition of human WNK3 (1 to 434 residues) using myelin basic protein as substrate measured after 40 mins in presence of [gamma33P]ATP by scintillation counting method. Further details: scale not given: the % may be the effect or the level left.
In data set [2] the test system is Serine/threonine-protein kinase N1 (Homo sapiens), Q16512 [V901I]. Kind of data set: Inhibition of human PRK1 V901I mutant (498 to end residues) using KKLNRTLSFAEPG as substrate measured after 40 mins in presence of [gamma33P]ATP by scintillation counting method. Further details: scale not given: the % may be the effect or the level left.
Data set [3] addresses Ephrin type-B receptor 1 (Homo sapiens) (UniProt P54762). Kind of data set: Inhibition of recombinant human EphB1 (564 to end residues) assessed as residual activity at 10 uM using KVEKIGEGTYGVVYK as substrate measured after 40 mins in presence of [gamma33P]ATP by scintillation counting method.
For data set [4], the target named is Homeodomain-interacting protein kinase 3 (Homo sapiens) (UniProt Q9H422). Description: Inhibition of recombinant human HIPK3 (161 to 562 residues) assessed as residual activity at 10 uM using myelin basic protein as substrate measured after 40 mins in presence of [gamma33P]ATP by scintillation counting method.
For data set [5], the system named is HCT-116. Kind of data set: Cell cycle arrest in human HCT116 cells assessed as up regulation of cdc25 expression up to 150 nM after 24 hrs by Western blot analysis. It counts as functional, cell-based.
Data set [6] addresses Receptor-interacting serine/threonine-protein kinase 2 (Homo sapiens) (UniProt O43353). Kind of data set: Inhibition of human RIPK2 (1 to 299 residues) using myelin basic protein as substrate measured after 120 mins in presence of [gamma33P]ATP by scintillation counting method. Further details: scale not given: the % may be the effect or the level left.
The target of data set [7] is Serine/threonine-protein kinase 38-like (Homo sapiens) (UniProt Q9Y2H1). Kind of data set: Inhibition of recombinant human NDR2 (83 to end residues) assessed as residual activity at 10 uM using RSRSRSRSRSRSRSR as substrate measured after 40 mins in presence of [gamma33P]ATP by scintillation counting method.
For data set [8], the target named is CDC7/Cyclin B1 (Homo sapiens) (UniProt P14635+O00311). Kind of data set: Inhibition of recombinant full-length human CDC7/cyclinB1 assessed as residual activity at 10 uM using Histone H1 as substrate measured after 120 mins in presence of [gamma33P]ATP by scintillation counting method. It counts as protein-complex assay.
Data set [9] can be described thus: Toxicity in nude BALB/c mouse assessed as change in AST level at 40 to 80 mg/kg, po once daily for 4 weeks measured post-last dose. It counts as organism-based. The following applies: in vivo, 672 h.
Data set [10] concerns the target Hepatocyte growth factor receptor (Homo sapiens) (UniProt P08581). Kind of data set: Inhibition of recombinant human MET A1209G/V1290L mutant (974 to end residues) assessed as residual activity at 10 uM using KKKGQEEEYVFIE as substrate measured after 40 mins in presence of [gamma33P]ATP by scintillation counting method.
Data set [11] concerns the target Receptor-interacting serine/threonine-protein kinase 1 (Homo sapiens) (UniProt Q13546). Kind of data set: Inhibition of human RIPK1 (8 to 322 residues) using myelin basic protein as substrate measured after 120 mins in presence of [gamma33P]ATP by scintillation counting method. Further details: scale not given: the % may be the effect or the level left.
Data set [12] has as its target Serine/threonine-protein kinase NIM1 (Homo sapiens) (UniProt Q8IY84). Description: Inhibition of recombinant full-length human NIM1 assessed as residual activity at 10 uM using KKKVSRSGLYRSPSMPENLNRPR as substrate measured after 40 mins in presence of [gamma33P]ATP by scintillation counting method.
The target in data set [13] is Casein kinase 2 (Homo sapiens) (UniProt P67870+P68400+P19784+Q8NEV1). Kind of data set: Inhibition of human CK2 assessed as residual activity at 10 uM. It counts as protein assay.
Data set [14] has as its target Serine/threonine-protein kinase WNK1 (Homo sapiens) (UniProt Q9H4A3). Kind of data set: Inhibition of human WNK1 (1 to 491 residues) using myelin basic protein as substrate measured after 120 mins in presence of [gamma33P]ATP by scintillation counting method. Further details: scale not given: the % may be the effect or the level left.
For data set [15], the system named is Tyrosine-protein kinase ABL1 (Homo sapiens), P00519 [H396P]. Description: Inhibition of recombinant human ABL H396P mutant (27 to end residues) assessed as residual activity at 10 uM using EAIYAAPFAKKK as substrate measured after 40 mins in presence of [gamma33P]ATP by scintillation counting method.
The test system of data set [16] is HCT-116. Kind of data set: Induction of apoptosis in human HCT116 cells assessed as necrotic cells at 100 nM measured after 48 hrs by Annexin V-FITC/propidium iodide staining-based flow cytometry (reference value: 1.16%). It counts as functional. (In general: A flow cytometer gives signals particle by particle.)
The subject of data set [17] is Fibroblast growth factor receptor 2 (Homo sapiens), P21802 [N549H]. Description: Inhibition of recombinant human FGFR2 N549H mutant (456 to 770 residues) assessed as residual activity at 10 uM using GGEEEEYFELVKKKK as substrate measured after 40 mins in presence of [gamma33P]ATP by scintillation counting method.
The target in data set [18] is Serine/threonine-protein kinase SBK1 (Homo sapiens) (UniProt Q52WX2). Kind of data set: Inhibition of recombinant full-length human SBK1 assessed as residual activity at 10 uM using KKLRRTLSVA as substrate measured after 120 mins in presence of [gamma33P]ATP by scintillation counting method.
The test system of data set [19] is PI3-kinase p110-alpha/p85-alpha (Homo sapiens), P27986+P42336 [E545K]. Description: Inhibition of recombinant full-length human PI3K p110alpha/p85alpha E545K mutant assessed as residual activity at 10 uM using phosphatidylinositol-4, 5-bisphosphate as substrate measured after 40 mins by fluorescence assay. It counts as protein-complex assay.
Data set [20] addresses Serine/threonine-protein kinase BRSK1 (Homo sapiens) (UniProt Q8TDC3). Description: Inhibition of recombinant human BrSK1 (2 to end residues) assessed as residual activity at 10 uM using KKKVSRSGLYRSPSMPENLNRPR as substrate measured after 120 mins in presence of [gamma33P]ATP by scintillation counting method.
Data set [21] has as its target Bone morphogenetic protein receptor type-1B (Homo sapiens) (UniProt O00238). Kind of data set: Inhibition of recombinant human ALK6 (148 to end residues) assessed as residual activity at 10 uM using casein as substrate measured after 40 mins in presence of [gamma33P]ATP by scintillation counting method.
In data set [22] the test system is PI3-kinase p110-alpha/p85-alpha (Homo sapiens), P27986+P42336 [H1047R]. Description: Inhibition of recombinant full-length human PI3K p110alpha/p85alpha H1047R mutant assessed as residual activity at 10 uM using phosphatidylinositol-4, 5-bisphosphate as substrate measured after 40 mins by fluorescence assay. It counts as protein-complex assay.
In data set [23] the target is Serine/threonine-protein kinase TBK1 (Homo sapiens) (UniProt Q9UHD2). Description: Inhibition of recombinant full-length human TBK1 assessed as residual activity at 10 uM using KRRRALS(p)VASLPGL as substrate measured after 40 mins in presence of [gamma33P]ATP by scintillation counting method.
Data set [24] deals with CDK4/Cyclin D3 (Homo sapiens) (UniProt P11802+P30281). Kind of data set: Inhibition of recombinant full-length human CDK4/cyclinD3 assessed as residual activity at 10 uM using Rb fragment as substrate measured after 40 mins in presence of [gamma33P]ATP by scintillation counting method. It counts as protein-complex assay.

Bone morphogenetic protein receptor type-1B (Homo sapiens), sequence (O00238 whole entry): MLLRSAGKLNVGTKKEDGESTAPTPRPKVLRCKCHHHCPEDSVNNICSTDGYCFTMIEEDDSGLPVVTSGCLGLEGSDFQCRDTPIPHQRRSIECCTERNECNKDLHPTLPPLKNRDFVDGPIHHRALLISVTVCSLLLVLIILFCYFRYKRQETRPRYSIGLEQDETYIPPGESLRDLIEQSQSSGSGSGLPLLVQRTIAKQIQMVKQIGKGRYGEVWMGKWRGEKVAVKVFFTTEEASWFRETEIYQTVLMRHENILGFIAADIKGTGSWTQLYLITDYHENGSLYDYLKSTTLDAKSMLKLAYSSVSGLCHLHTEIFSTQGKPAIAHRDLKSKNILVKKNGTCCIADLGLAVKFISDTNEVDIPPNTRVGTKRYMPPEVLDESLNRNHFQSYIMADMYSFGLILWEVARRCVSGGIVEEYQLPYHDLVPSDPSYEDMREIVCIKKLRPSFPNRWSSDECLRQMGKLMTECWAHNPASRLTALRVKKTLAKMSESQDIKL
Serine/threonine-protein kinase SBK1 (Homo sapiens), sequence (Q52WX2 whole entry): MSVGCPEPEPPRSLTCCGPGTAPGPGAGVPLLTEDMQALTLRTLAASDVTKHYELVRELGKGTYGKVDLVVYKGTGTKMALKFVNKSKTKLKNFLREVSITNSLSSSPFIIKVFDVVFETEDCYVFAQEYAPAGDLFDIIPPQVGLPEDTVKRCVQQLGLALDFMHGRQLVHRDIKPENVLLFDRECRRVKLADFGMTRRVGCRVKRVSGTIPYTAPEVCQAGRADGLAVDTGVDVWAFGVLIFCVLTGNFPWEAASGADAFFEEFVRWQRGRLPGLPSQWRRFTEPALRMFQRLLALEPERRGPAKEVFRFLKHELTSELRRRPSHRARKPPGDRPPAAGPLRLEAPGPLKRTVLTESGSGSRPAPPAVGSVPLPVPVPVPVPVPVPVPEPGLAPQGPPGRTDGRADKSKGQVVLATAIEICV
Serine/threonine-protein kinase TBK1 (Homo sapiens), sequence (Q9UHD2 whole entry, the tested form may be a part): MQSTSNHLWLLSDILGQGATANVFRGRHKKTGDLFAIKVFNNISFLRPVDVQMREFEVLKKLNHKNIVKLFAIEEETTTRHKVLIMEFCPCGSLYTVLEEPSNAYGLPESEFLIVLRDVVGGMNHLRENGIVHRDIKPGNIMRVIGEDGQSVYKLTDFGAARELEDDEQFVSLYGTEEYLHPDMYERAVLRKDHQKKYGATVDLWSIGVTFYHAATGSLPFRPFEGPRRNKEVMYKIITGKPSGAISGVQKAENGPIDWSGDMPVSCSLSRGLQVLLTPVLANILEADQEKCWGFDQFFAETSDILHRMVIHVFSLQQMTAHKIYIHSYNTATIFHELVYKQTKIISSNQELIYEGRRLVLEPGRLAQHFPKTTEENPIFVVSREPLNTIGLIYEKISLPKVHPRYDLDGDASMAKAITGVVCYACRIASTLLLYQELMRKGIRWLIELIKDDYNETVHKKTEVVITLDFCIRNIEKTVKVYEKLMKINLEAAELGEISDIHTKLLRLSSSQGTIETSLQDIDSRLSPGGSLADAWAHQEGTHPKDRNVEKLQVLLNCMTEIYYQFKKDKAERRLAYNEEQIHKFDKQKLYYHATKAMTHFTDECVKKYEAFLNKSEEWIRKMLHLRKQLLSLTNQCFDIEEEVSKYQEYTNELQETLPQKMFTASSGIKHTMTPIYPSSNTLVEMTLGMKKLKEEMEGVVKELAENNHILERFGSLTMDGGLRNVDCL
Serine/threonine-protein kinase WNK1 (Homo sapiens), sequence (Q9H4A3 whole entry, looked up, the tested form may be a part): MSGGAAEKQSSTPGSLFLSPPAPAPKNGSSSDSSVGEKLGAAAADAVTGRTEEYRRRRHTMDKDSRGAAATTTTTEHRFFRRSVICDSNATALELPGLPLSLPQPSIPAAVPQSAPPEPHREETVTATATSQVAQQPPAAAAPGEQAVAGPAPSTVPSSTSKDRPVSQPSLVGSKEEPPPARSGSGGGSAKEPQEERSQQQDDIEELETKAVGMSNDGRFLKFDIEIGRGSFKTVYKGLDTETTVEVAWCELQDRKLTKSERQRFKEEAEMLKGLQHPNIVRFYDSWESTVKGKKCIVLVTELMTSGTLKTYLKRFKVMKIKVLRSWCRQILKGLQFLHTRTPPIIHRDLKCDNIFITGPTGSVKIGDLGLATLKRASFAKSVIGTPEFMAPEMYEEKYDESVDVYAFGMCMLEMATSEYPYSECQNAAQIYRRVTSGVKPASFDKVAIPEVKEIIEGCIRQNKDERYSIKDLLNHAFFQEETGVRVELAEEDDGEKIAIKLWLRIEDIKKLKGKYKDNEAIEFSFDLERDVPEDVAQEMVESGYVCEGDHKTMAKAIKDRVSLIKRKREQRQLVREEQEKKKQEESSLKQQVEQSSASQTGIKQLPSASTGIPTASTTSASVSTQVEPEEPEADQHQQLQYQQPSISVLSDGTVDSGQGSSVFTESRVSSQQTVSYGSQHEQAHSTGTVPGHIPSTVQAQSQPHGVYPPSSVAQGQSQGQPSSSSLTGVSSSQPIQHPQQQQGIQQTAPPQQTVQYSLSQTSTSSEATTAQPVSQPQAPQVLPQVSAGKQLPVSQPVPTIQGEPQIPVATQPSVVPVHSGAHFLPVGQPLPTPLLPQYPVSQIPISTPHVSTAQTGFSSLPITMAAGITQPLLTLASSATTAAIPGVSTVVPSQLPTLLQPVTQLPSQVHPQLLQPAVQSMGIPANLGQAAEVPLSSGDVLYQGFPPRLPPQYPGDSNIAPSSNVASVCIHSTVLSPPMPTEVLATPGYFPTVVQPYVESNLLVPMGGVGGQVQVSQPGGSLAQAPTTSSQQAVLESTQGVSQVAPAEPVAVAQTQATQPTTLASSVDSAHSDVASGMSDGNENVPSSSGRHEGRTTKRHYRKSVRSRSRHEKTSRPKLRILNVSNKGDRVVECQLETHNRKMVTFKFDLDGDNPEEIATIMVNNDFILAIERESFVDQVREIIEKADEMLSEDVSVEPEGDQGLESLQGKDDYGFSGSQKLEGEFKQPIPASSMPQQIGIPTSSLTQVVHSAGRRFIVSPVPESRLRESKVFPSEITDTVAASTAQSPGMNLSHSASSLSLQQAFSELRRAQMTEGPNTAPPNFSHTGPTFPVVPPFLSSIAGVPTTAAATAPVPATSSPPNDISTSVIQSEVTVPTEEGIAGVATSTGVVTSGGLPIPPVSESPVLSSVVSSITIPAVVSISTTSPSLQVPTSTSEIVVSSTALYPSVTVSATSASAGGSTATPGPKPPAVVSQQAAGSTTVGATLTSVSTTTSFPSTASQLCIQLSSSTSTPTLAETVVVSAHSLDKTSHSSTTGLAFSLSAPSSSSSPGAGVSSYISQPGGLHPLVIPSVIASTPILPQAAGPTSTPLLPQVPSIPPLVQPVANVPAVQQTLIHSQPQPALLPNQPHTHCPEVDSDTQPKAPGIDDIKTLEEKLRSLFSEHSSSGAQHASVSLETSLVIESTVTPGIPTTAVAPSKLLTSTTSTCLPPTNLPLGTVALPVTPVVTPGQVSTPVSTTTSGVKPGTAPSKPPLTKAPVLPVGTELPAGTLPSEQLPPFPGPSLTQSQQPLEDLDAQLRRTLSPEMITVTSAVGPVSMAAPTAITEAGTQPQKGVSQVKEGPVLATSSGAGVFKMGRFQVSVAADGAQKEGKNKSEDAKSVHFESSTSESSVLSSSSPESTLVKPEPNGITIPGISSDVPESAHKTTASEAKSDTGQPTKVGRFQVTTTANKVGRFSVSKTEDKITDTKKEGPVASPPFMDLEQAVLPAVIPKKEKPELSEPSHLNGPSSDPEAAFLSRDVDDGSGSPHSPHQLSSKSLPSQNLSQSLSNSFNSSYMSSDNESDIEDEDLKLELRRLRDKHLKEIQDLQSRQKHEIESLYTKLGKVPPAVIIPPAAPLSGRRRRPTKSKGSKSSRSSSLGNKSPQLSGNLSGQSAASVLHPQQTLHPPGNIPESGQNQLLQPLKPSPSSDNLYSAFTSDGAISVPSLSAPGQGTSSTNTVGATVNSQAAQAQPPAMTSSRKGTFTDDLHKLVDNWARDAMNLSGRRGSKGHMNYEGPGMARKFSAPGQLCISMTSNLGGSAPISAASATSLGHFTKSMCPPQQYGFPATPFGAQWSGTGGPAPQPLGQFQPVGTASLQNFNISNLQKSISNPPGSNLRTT
Receptor-interacting serine/threonine-protein kinase 1 (Homo sapiens), sequence (Q13546 whole entry, the tested form may be a part): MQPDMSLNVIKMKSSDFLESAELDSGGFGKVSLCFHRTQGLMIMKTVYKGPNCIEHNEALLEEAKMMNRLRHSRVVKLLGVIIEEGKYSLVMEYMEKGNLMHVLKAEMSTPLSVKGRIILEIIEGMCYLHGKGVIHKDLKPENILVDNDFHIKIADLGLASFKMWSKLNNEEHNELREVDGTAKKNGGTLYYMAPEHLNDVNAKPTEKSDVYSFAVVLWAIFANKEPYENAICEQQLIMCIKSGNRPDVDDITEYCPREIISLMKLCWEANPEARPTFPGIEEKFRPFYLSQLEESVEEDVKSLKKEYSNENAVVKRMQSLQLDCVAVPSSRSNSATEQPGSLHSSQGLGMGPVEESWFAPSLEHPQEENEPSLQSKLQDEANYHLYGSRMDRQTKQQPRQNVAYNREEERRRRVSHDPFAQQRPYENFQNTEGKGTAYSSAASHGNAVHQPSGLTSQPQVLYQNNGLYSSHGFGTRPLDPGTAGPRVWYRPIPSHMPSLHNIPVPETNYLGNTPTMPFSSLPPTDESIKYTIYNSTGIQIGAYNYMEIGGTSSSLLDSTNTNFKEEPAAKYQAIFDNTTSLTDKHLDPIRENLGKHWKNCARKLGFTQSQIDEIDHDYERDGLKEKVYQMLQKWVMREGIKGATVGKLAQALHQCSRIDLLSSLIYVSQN

As to `Cc1cc(C)c(CNc2nc(Cl)nc3c2ncn3C2CCCC2)c(=O)[nH]1`, the Activity in data set [1] turned out to be 136%; in [2] it was 98.5%; in [3], 104%; in data set [4] it was 106%; in data set [6], 106%; in data set [7], 108%. Further, the Activity in data set [8] was 102%; in data set [9], “Non-Toxic”; in [10], 80%; in data set [11], 92%; in data set [12], 106%; in data set [13], 111%. Moreover, the Activity in data set [14] was 104%; in data set [15], 104%; with HCT-116 [16], 5.57%; in [17], 88%; in [18] it was 107%; in data set [19], 93.5%. In addition, the Activity in [20] was found to be 140%; in [21], 103%; in [22], 101%; in [23] it was 99.5%; in data set [24], 91%. For the same compound, the result in the data set on HCT-116 [5] was Active.
